Assay results: US9988400B2 (Genentech, Inc., priority 2013, dated 2018)

target: T1, HEK cells stably transfected with tetracycline inducible hNR1 and hNR2A (Homo sapiens, UniProt Q05586+Q12879); test: Assay 1: Cell-Based Assay, cytosolic calcium response to positive allosteric modulators (with 30 μM glycine and 300 nM L-glutamate, EC30); conditions: Table 3; cytosolic calcium response, with 30 μM glycine and 300 nM L-glutamate (EC30); — = no plateau was reached
T1 construct: expressed in transfected cells; host or cells: HEK cells, stably transfected, tetracycline/doxycycline inducible
Method in brief: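 Cells induced 24 h with 7.5 μg mL^−1 doxycycline plus 500 μM (+)-ketamine, loaded 60 min at 37 °C with calcium dye in Mg-free HBSS (1.8 mM Ca, probenecid, 10 μM (+)-ketamine, pH 7.15). Peak RFU over 5 min after compound addition, scaled to 100 μM L-glutamate (100%) and 0 μM (0%); four-parameter Hill fit for EC50, max % if no plateau.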

T1 sequence (Q12879 23-1464, other chains not shown): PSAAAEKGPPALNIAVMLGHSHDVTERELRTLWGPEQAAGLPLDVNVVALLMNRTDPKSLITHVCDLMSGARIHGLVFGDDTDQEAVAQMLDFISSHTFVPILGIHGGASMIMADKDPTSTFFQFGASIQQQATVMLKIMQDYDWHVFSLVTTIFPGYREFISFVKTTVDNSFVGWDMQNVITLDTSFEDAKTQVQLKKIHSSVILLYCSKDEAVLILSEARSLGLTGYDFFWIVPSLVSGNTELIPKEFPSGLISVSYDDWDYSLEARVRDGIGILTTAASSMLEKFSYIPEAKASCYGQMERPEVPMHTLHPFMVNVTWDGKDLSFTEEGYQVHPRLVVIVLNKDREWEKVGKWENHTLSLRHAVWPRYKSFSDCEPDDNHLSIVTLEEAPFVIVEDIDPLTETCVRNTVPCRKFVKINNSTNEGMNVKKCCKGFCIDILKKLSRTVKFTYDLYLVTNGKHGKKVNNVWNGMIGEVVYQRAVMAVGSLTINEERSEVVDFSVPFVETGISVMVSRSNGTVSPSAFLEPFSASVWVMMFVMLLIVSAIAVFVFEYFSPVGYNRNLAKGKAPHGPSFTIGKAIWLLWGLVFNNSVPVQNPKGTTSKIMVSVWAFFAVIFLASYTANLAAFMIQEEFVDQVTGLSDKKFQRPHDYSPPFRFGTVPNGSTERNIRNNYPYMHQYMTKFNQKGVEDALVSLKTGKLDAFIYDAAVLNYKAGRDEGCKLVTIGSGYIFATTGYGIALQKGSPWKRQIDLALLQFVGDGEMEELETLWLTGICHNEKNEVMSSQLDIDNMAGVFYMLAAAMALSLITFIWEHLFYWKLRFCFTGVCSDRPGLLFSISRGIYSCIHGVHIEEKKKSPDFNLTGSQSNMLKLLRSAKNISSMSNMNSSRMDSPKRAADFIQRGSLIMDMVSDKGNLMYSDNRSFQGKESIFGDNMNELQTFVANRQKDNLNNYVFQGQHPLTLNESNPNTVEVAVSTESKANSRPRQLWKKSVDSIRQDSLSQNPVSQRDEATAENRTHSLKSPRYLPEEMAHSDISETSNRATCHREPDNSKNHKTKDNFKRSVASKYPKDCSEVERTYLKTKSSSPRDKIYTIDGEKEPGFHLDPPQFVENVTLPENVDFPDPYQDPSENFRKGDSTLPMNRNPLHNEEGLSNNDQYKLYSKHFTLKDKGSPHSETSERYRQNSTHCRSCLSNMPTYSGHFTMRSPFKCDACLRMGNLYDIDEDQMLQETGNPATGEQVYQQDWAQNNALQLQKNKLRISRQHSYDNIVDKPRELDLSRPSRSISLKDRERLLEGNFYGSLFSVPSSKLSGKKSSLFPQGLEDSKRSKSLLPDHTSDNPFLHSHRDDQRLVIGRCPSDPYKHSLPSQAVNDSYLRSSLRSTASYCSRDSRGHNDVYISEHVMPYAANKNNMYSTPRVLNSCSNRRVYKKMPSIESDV

| SMILES | EC50 [µM] |
| --- | --- |
| Cc1sc2nc(Cn3nc(Cl)cc3C(F)(F)F)cc(=O)n2c1C(F)(F)F [compound 161, 7-[[3-chloro-5-(trifluoromethyl)pyrazol-1-yl]methyl]-2-methyl-3-(trifluoromethyl)thiazolo[3,2-a]pyrimidin-5-one] | 1.49 |
| N#CC1CC1c1c(C(F)(F)F)sc2nc(Cc3cccc(C(F)(F)F)c3F)cc(=O)n12 (centres unmarked) [compound 162, 2-[7-[[2-fluoro-3-(trifluoromethyl)phenyl]methyl]-5-oxo-2-(trifluoromethyl)thiazolo[3,2-a]pyrimidin-3-yl]cyclopropanecarbonitrile] | 0.199 |
| Cc1sc2nc(CN(C)c3ccc(Cl)cn3)cc(=O)n2c1C1CC1CO (centres unmarked) [compound 163, 7-[[(5-chloro-2-pyridyl)-methyl-amino]methyl]-3-[2-(hydroxymethyl)cyclopropyl]-2-methyl-thiazolo[3,2-a]pyrimidin-5-one] | 0.359 |
| CCNC(=O)c1c(C)sc2nc(Cn3nc(Cl)cc3Cl)cc(=O)n12 [compound 164, 7-[(3,5-dichloropyrazol-1-yl)methyl]-N-ethyl-2-methyl-5-oxo-thiazolo[3,2-a]pyrimidine-3-carboxamide] | 0.562 |
| CCNC(=O)c1c(OCC(F)(F)F)sc2nc(Cc3cccc(C(F)(F)F)c3F)cc(=O)n12 [compound 165, N-ethyl-7-[[2-fluoro-3-(trifluoromethyl)phenyl]methyl]-5-oxo-2-(2,2,2-trifluoroethoxy)thiazolo[3,2-a]pyrimidine-3-carboxamide] | 1.37 |
| CC(=O)c1c(C(F)(F)F)sc2nc(Cn3nc(C(F)(F)F)cc3Cl)cc(=O)n12 [compound 166, 3-acetyl-7-[[5-chloro-3-(trifluoromethyl)pyrazol-1-yl]methyl]-2-(trifluoromethyl)thiazolo[3,2-a]pyrimidin-5-one] | 2.69 |
| CC(=O)c1c(C(F)(F)F)sc2nc(Cn3nc(Cl)cc3C(F)(F)F)cc(=O)n12 [compound 167, 3-acetyl-7-[[3-chloro-5-(trifluoromethyl)pyrazol-1-yl]methyl]-2-(trifluoromethyl)thiazolo[3,2-a]pyrimidin-5-one] | 5.26 |
| C=C(C)c1c(C(F)(F)F)sc2nc(Cn3nc(C(F)(F)F)cc3Cl)cc(=O)n12 [compound 169, 7-[[5-chloro-3-(trifluoromethyl)pyrazol-1-yl]methyl]-3-isopropenyl-2-(trifluoromethyl)thiazolo[3,2-a]pyrimidin-5-one] | 7.46 |
| Cc1sc2nc(Cn3nc(C(F)(F)F)cc3Cl)cc(=O)n2c1-c1ncc[nH]1 [compound 170, 7-[[5-chloro-3-(trifluoromethyl)pyrazol-1-yl]methyl]-3-(1H-imidazol-2-yl)-2-methyl-thiazolo[3,2-a]pyrimidin-5-one] | 0.814 |
| O=c1cc(Cn2nc(C(F)(F)F)cc2Cl)nc2sc(C(F)(F)F)c(-c3cncnc3)n12 [compound 171, 7-[[5-chloro-3-(trifluoromethyl)pyrazol-1-yl]methyl]-3-pyrimidin-5-yl-2-(trifluoromethyl)thiazolo[3,2-a]pyrimidin-5-one] | 1.21 |
| O=c1cc(Cn2nc(Cl)cc2C(F)(F)F)nc2sc(C(F)(F)F)c(-c3cncnc3)n12 [compound 172, 7-[[3-chloro-5-(trifluoromethyl)pyrazol-1-yl]methyl]-3-pyrimidin-5-yl-2-(trifluoromethyl)thiazolo[3,2-a]pyrimidin-5-one] | 27.6 |
| O=c1cc(Cn2nc(Cl)cc2C(F)(F)F)nc2sc(C(F)(F)F)c(-c3cccnc3)n12 [compound 173, 7-[[3-chloro-5-(trifluoromethyl)pyrazol-1-yl]methyl]-3-(3-pyridyl)-2-(trifluoromethyl)thiazolo[3,2-a]pyrimidin-5-one] | 24.7 |
| CCNC(=O)c1c(OCC(F)(F)F)sc2nc(Cn3nc(C(F)(F)F)cc3Cl)cc(=O)n12 [compound 174, 7-[[5-chloro-3-(trifluoromethyl)pyrazol-1-yl]methyl]-N-ethyl-5-oxo-2-(2,2,2-trifluoroethoxy)thiazolo[3,2-a]pyrimidine-3-carboxamide] | 1.67 |
| CCNC(=O)c1c(OCC)sc2nc(Cn3nc(C(F)(F)F)cc3Cl)cc(=O)n12 [compound 175, 7-[[5-chloro-3-(trifluoromethyl)pyrazol-1-yl]methyl]-2-ethoxy-N-ethyl-5-oxo-thiazolo[3,2-a]pyrimidine-3-carboxamide] | 0.864 |
| CCNC(=O)c1c(OCC)sc2nc(Cn3nc(Cl)cc3C(F)(F)F)cc(=O)n12 [compound 176, 7-[[3-chloro-5-(trifluoromethyl)pyrazol-1-yl]methyl]-2-ethoxy-N-ethyl-5-oxo-thiazolo[3,2-a]pyrimidine-3-carboxamide] | 8.92 |
| Cc1sc2nc(Cn3nc(C(F)(F)F)cc3Cl)cc(=O)n2c1C(=O)C(C)C [compound 177, 7-[[5-chloro-3-(trifluoromethyl)pyrazol-1-yl]methyl]-2-methyl-3-(2-methylpropanoyl)thiazolo[3,2-a]pyrimidin-5-one] | 0.123 |
| Cc1sc2nc(Cn3nc(Cl)cc3C(F)(F)F)cc(=O)n2c1C(=O)C(C)C [compound 178, 7-[[3-chloro-5-(trifluoromethyl)pyrazol-1-yl]methyl]-2-methyl-3-(2-methylpropanoyl)thiazolo[3,2-a]pyrimidin-5-one] | 0.354 |
| CC[C@@H](C)NC(=O)c1c(C)sc2nc(Cc3cccc(C(F)(F)F)c3F)cc(=O)n12 [compound 179, 7-[[2-fluoro-3-(trifluoromethyl)phenyl]methyl]-2-methyl-N-[(1R)-1-methylpropyl]-5-oxo-thiazolo[3,2-a]pyrimidine-3-carboxamide] | 0.698 |
| CC[C@H](C)NC(=O)c1c(C)sc2nc(Cc3cccc(C(F)(F)F)c3F)cc(=O)n12 [compound 180, 7-[[2-fluoro-3-(trifluoromethyl)phenyl]methyl]-2-methyl-N-[(1S)-1-methylpropyl]-5-oxo-thiazolo[3,2-a]pyrimidine-3-carboxamide] | 2.94 |
| Cc1sc2nc(CN(C)c3ccc(F)cn3)cc(=O)n2c1C1CC1CO (centres unmarked) [compound 182, 7-[[(5-fluoro-2-pyridyl)-methyl-amino]methyl]-3-[2-(hydroxymethyl)cyclopropyl]-2-methyl-thiazolo[3,2-a]pyrimidin-5-one] | 0.175 |
| COCc1c(C)sc2nc(Cn3nc(C(F)(F)F)cc3Cl)cc(=O)n12 [compound 183, 7-[[5-chloro-3-(trifluoromethyl)pyrazol-1-yl]methyl]-3-(methoxymethyl)-2-methyl-thiazolo[3,2-a]pyrimidin-5-one] | 5.29 |

The remaining lines, values ahead:

| EC50 [µM] | SMILES |
| --- | --- |
| 9.99 | O=c1cc(Cn2nc(C(F)(F)F)cc2Cl)nc2sc(C(F)(F)F)c(C3CC3)n12 [compound 184, 7-[[5-chloro-3-(trifluoromethyl)pyrazol-1-yl]methyl]-3-cyclopropyl-2-(trifluoromethyl)thiazolo[3,2-a]pyrimidin-5-one] |
| 17.8 | Cc1sc2nc(Cn3nc(C(F)(F)F)cc3Cl)cc(=O)n2c1CS(C)(=O)=O [compound 185, 7-[[5-chloro-3-(trifluoromethyl)pyrazol-1-yl]methyl]-2-methyl-3-(methylsulfonylmethyl)thiazolo[3,2-a]pyrimidin-5-one] |
| 3.85 | Cc1sc2nc(Cn3nc(C(F)(F)F)cc3Cl)cc(=O)n2c1Cn1cccn1 [compound 186, 7-[[5-chloro-3-(trifluoromethyl)pyrazol-1-yl]methyl]-2-methyl-3-(pyrazol-1-ylmethyl)thiazolo[3,2-a]pyrimidin-5-one] |
| 11.1 | Cc1sc2nc(Cc3cc(C(F)(F)F)ccc3Cl)cc(=O)n2c1C1CC1C#N (centres unmarked) [compound 187, 2-[7-[[2-chloro-5-(trifluoromethyl)phenyl]methyl]-2-methyl-5-oxo-thiazolo[3,2-a]pyrimidin-3-yl]cyclopropanecarbonitrile] |
| 3.14 | Cc1sc2nc(Cn3nc(C(F)(F)F)cc3Cl)cc(=O)n2c1C1CCC1 [compound 188, 7-[[5-chloro-3-(trifluoromethyl)pyrazol-1-yl]methyl]-3-cyclobutyl-2-methyl-thiazolo[3,2-a]pyrimidin-5-one] |
| 7.45 | Cc1sc2nc(Cn3nc(Cl)cc3C(F)(F)F)cc(=O)n2c1C1CCC1 [compound 189, 7-[[3-chloro-5-(trifluoromethyl)pyrazol-1-yl]methyl]-3-cyclobutyl-2-methyl-thiazolo[3,2-a]pyrimidin-5-one] |
| 0.779 | Cc1sc2nc(CN(C)c3ccc(Cl)cn3)cc(=O)n2c1C1CC1C#N (centres unmarked) [compound 190, 2-[7-[[(5-chloro-2-pyridyl)-methyl-amino]methyl]-2-methyl-5-oxo-thiazolo[3,2-a]pyrimidin-3-yl]cyclopropanecarbonitrile] |
| 0.198 | Cc1sc2nc(Cn3nc(C(F)(F)F)cc3Cl)cc(=O)n2c1Cl [compound 192, 3-chloro-7-[[5-chloro-3-(trifluoromethyl)pyrazol-1-yl]methyl]-2-methyl-thiazolo[3,2-a]pyrimidin-5-one] |
| 0.243 | Cc1sc2nc(Cn3nc(Cl)cc3C(F)(F)F)cc(=O)n2c1Cl [compound 193, 3-chloro-7-[[3-chloro-5-(trifluoromethyl)pyrazol-1-yl]methyl]-2-methyl-thiazolo[3,2-a]pyrimidin-5-one] |
| 1.28 | COc1cc(F)c(F)cc1Cc1cc(=O)n2c(C3CC3C#N)c(C)sc2n1 (centres unmarked) [compound 194, 2-[7-[(4,5-difluoro-2-methoxy-phenyl)methyl]-2-methyl-5-oxo-thiazolo[3,2-a]pyrimidin-3-yl]cyclopropanecarbonitrile] |
| 0.0742 | CCN(Cc1cc(=O)n2c(C3CC3C#N)c(C)sc2n1)c1ccc(F)cn1 (centres unmarked) [compound 195, 2-[7-[[ethyl-(5-fluoro-2-pyridyl)amino]methyl]-2-methyl-5-oxo-thiazolo[3,2-a]pyrimidin-3-yl]cyclopropanecarbonitrile] |
